{
  "source": "ChEMBL document CHEMBL2029333",
  "about": "“Synthesis of norlignans and in vitro inhibitory activity of antigen-induced degranulation” (Bioorg Med Chem Lett, 2012)",
  "note": "pIC50: −log10 of the molar value.",
  "data": [
    {"tested_on": "RBL-2H3", "test": "Inhibition of DNP-BSA-induced degranulation in rat RBL2H3 cells assessed as reduction in beta-hexosaminidase release after 20 mins by spectrophotometry", "assay_type": "functional, cell-based", "conditions": "RBL-2H3, 20 min", "values": [
      {"molecule": "C=CC(CC(=O)c1ccc(OC)cc1)c1cccc(OC)c1", "note": "(stereo not given)", "pIC50": 4.07},
      {"molecule": "C=CC(/C=C/c1ccc(O)cc1)c1cccc(O)c1", "note": "(stereo not given)", "pIC50": 4.25},
      {"molecule": "C=CC(CC(=O)c1ccc(O)cc1)c1ccc(O)cc1", "note": "(stereo not given)", "pIC50": 4.46},
      {"molecule": "C=CC(CC(=O)c1ccc(OC)cc1)c1ccc(OC)cc1", "note": "(stereo not given)", "pIC50": 4.05},
      {"molecule": "C=CC(CC(=O)c1ccc(O)cc1)c1cccc(OC)c1", "note": "(stereo not given)", "pIC50": 4.75},
      {"molecule": "C=CC(CC(O)c1ccc(OC)cc1)c1ccc(OC)cc1", "note": "(stereo not given)", "pIC50": "< 3.70"},
      {"molecule": "C=CC(CC(O)c1ccc(O)cc1)c1ccc(O)cc1", "note": "(stereo not given)", "pIC50": "< 3.70"},
      {"molecule": "C=CC(CC(O)c1ccc(OC)cc1)c1cccc(OC)c1", "note": "(stereo not given)", "pIC50": "< 3.70"},
      {"molecule": "C=CC(CC(O)c1ccc(O)cc1)c1cccc(O)c1", "note": "(stereo not given)", "pIC50": 4.47},
      {"molecule": "C=CC(CC(=O)c1ccc(OC)cc1)c1cccc(O)c1", "note": "(stereo not given)", "pIC50": 4.04},
      {"molecule": "C=CC(/C=C/c1ccc(O)cc1)c1ccc(O)cc1", "note": "(stereo not given)", "pIC50": 4.26},
      {"molecule": "CN1CCC(=C2c3ccccc3CC(=O)c3sccc32)CC1", "note": "[KETOTIFEN]", "pIC50": 4.45},
      {"molecule": "C=CC(CC(=O)c1ccc(O)cc1)c1cccc(O)c1", "note": "(stereo not given)", "pIC50": 4.74},
      {"molecule": "C=CC(/C=C/c1ccc(OC)cc1)c1ccc(OC)cc1", "note": "(stereo not given)", "pIC50": "< 3.70"},
      {"molecule": "C=CC(/C=C/c1ccc(OC)cc1)c1cccc(OC)c1", "note": "(stereo not given)", "pIC50": "< 3.70"}
    ]}
  ]
}
